The text below walks through data of patent US7659277B2, “Ubiquitin ligase inhibitors and methods related thereto” (Proteologies, Ltd., priority 2003, dated 2010).

Read-outs that look alike come from different tables or passages of the source.

One test deals with Hmdm2 (Homo sapiens, UniProt Q00987). The test is described as follows: Selectivity (% A in 1 μM), ubiquitin ligase activity of Hmdm2. It counts as biochemical. The note with it: read-out: Selectivity (% A* in 1 μM) Hmdm2.
In a further test the target is T1, POSH (Homo sapiens, UniProt Q7Z6J0).
T1 construct: GST-POSH lot NB81/p.118 3.6 mg/ml; fused on or other part: GST tag, used for detection with anti-GST XL665
T1 sequence (Q7Z6J0 1-269 limits assumed): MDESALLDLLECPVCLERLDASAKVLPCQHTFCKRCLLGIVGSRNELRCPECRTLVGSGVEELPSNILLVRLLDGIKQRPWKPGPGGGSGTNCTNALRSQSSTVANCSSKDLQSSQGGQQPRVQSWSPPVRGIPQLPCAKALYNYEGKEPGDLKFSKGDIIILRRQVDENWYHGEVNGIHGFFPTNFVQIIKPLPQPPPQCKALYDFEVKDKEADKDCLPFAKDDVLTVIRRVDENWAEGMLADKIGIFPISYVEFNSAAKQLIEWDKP
The test is described as follows: IC50 assay procedure: GST-POSH auto-ubiquitination, homogeneous time-resolved fluorescence (Ub-cryptate / anti-GST XL665). It counts as biochemical. To be noted: ubiquitin ligase activity of POSH; GST-POSH 33 nM, 30 min preincubation. The source says: In certain preferred embodiments, agents that inhibit (or promote) the ubiquitin ligase activity of a ubiquitin ligase, such as POSH, may be identified using a homogenous time resolved fluorescence assay. Such an assay may employ a GST fused to the RING subunit of a ubiquitin ligase (e.g. POSH). Two flurophore-conjugated detection reagents are also used: anti-GSTXL665 and europium cryptate labeled ubiqutin. The ubiqutination of the ubiquitin ligase by ubiqutin cryptate and binding of the anti-GST tagged XL665 brings the fluorophores into close proximity allowing FRET reaction to occur. Accordingly, FRET serves as a measurement of ubiquitination of the ubiquitin ligase. An enzymatic system may be set up to provide activated ubiquitin, e.g., by providing ubiquitin, an E1 and an E2. Compounds that will not allow the FRET reaction are considered to be inhibitors.
Step 3: establish IC 50 value measurements.
Experimental Protocols: 1. HTS Screening Assay Procedure • Microplates 10109D to 10114D compounds at 1 mM. • (Controls in column 1). • All compounds were perchase from ChemBridge corporation: ChemBridge corporation 16981 Via Tazon, Suite G San Diego, Calif. 92127 a. Microplates Labeling • Put labels to 6 PS U-bottom clear microplate. • Put labels to 18 black microplates (triplicats). b. Microplates Preparation • Put 100 μl GST-POSH at 33 nM in wells of the clear PS U-bottom microplates (exept wells A1-D1). • Negative control: place 100 μl dH2O in wells A1-D1. • (Positive control: place 100 μl GST-POSH at 33 nM in wells E1-H1). • Put 8 μl enzymes solution ×4 to black microplates (column 1 to 11). c. Incubation of E3 with Compounds • Transfer 5 μl of compounds (at 1 mM) to the microplates containing 100 μl GST-POSH. • Add 5 μl of DMSO to controls column 1. • Incubation 30 minutes at RT. d. Enzymatic (Ubiquitination) and Final Steps • Distribution of (triplicate) 3×23 μl incubated compounds into 3 black microplates containing enzymatic solution (on splitting apparatus). • Incubation 30 minutes at 37° C. • Addition of 8 μl EDTA 0.5 M. • Incubation 15 (at least) minutes at RT. • Addition of 30 μl GST XL 665 in reconstitution buffer. • Incubation 45 (at least) minutes at RT. • Reading fluorescence. • Record results in computer. • Put sealing foil back on original and diluted microplates and keep at −70° C. • Always the plates must be closed with lids during each step. 2. […] Microplates Labeling • Put labels to 4 clear PP clear microplate (18.2 μM, 9.1 uM, 1.82 uM, 910 nM,). • Put labels to 5 clear PS U-bottom clear microplate 4.44 μM, 909, 444, 91 and 44 nM) • Put labels to 15 black microplates (triplicates). f. Original Microplate Dilutions • Put DMSO 40 μl to (18.2 μM, 1.82 uM plates) and 20 ul to (9.1 uM, 910 nM plates. • Mix by pipetation the original microplate (3× up and down 45 μl). • Transfer 10 μl of compounds from the original microplate (at 91 μM) to the next microplate (=18.2 μM) on splitting apparatus. • Mix by pipetation the 18.2 uM microplate (3× up and down 45 μl). • Transfer 20 μl of compounds from the 18.2 uM microplate to the next microplate (=9.1 μM) on splitting apparatus. • Mix by pipetation the 9.1 uM microplate (3× up and down 45 μl). • Transfer 10 μl of compounds from the 9.1 uM microplate to the next microplate (=1.82 μM) on splitting apparatus. • Mix by pipetation the 1.82 uM microplate (3× up and down 45 μl). • Transfer 20 μl of compounds from the 1.82 uM microplate to the next microplate (=910 nM) on splitting apparatus • Mix by pipetation. g. Microplates Preparation • Put 123 μl GST-POSH at 33 nM in wells of the 5 clear PS U-bottom clear microplates. • Positive control: place 123 μl GST-POSH at 33 nM in well A12-h12 13 μl DMSO. • Negative control: place 123 μl dH2O in well B1 and 13 μl DMSO. • Put 8 μl enzymes solution ×4 to 15 black microplates. • Controls: put 8 μl enzymes solution ×4 to wells A1 to F1. h. […]

Setting [1] is: % activity at 1 μM compound, control is related to 100% activity, HTS protocol.

Sequence of Hmdm2 (Q00987 whole entry): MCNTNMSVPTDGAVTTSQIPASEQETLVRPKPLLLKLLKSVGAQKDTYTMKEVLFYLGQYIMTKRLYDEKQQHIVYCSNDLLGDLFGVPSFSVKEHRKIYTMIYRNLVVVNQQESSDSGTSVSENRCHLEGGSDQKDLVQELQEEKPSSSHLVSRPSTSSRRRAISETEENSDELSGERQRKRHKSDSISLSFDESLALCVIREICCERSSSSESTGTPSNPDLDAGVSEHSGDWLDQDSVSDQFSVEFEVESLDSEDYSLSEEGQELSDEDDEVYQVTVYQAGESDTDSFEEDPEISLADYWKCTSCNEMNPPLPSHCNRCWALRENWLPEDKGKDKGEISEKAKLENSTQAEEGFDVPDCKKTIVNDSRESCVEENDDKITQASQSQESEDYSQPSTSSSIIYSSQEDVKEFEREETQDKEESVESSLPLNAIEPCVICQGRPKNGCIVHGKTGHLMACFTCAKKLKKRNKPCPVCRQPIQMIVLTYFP

Consider `O=C1NC(=O)C(=Cc2ccc(-c3cc(Cl)ccc3Cl)o2)C(=O)N1` [Compound 1], for which, on Hmdm2, the remaining activity at 1 µM was 105%. The midpoint of inhibition against POSH, the IC50, lay at 0.2 µM.
In the same order, the values of `C=CCN1C(=O)NC(=O)/C(=C\c2ccccc2)C1=O` [Compound 2] are 108% and 0.7 µM.
For `O=C1NC(=O)N(c2ccc(Br)cc2)C(=O)/C1=C/c1ccc(O)cc1` [Compound 5], the remaining activity at 1 µM on Hmdm2 (setting [1]) is 61%. Further, the concentration for half-maximal inhibition (IC50) against POSH stood at 0.3 µM.
On the same counts, the results for `O=C1NC(=S)N(c2ccccc2)C(=O)/C1=C\c1c(Cl)cccc1Cl` [Compound 6] are 129% and 0.8 µM.
On the same counts, the results for `COc1ccc(N2C(=O)NC(=O)/C(=C\c3ccc(Cl)cc3)C2=O)cc1` [Compound 7] are 101% and 1 µM.
Consider `COc1ccc(N2C(=O)NC(=O)/C(=C\C=C\c3ccccc3)C2=O)cc1` [Compound 8], for which the remaining activity at 1 µM on Hmdm2 worked out at 78%. For the same compound, on POSH, the IC50 turned out to be 0.5 µM.
In the case of `COc1cc(C=C2C(=O)N(C)C(=S)N(C)C2=O)ccc1O` [Compound 9], on Hmdm2 (setting [1]), the remaining activity at 1 µM amounted to 103%. In addition, the IC50 on POSH was determined as 10 µM.
In the same order, the values of `COc1ccccc1N1C(=O)NC(=O)/C(=C\C=C\c2ccccc2)C1=O` [Compound 10] are 116% and 1 µM.
In the case of `COc1ccc(/C=C2\C(=O)NC(=S)N(c3ccccc3)C2=O)cc1` [Compound 11], the remaining activity at 1 µM on Hmdm2 (setting [1]) came out at 95%. The compound also gave an IC50 against POSH of 10 µM.
In the same order, the values of `C=CCN1C(=O)NC(=O)/C(=C/c2ccc(F)cc2)C1=O` [Compound 12] are 99% and 1 µM.
On the same counts, the results for `O=C1C(=Cc2ccco2)C(=O)N(c2ccccc2)C(=S)N1c1ccccc1` [Compound 13] are 11% and 1 µM.
For the compound `CCCCCCOc1ccc(C=C2C(=O)NC(=S)NC2=O)cc1` [Compound 15], at Hmdm2, the remaining activity at 1 µM came to 90%. Further, the IC50 against POSH is 0.5 µM.
`COc1cc(N/C=C2/C(=O)NC(=S)N(c3cccc(C)c3)C2=O)cc(OC)c1` [Compound 16]: at Hmdm2 (setting [1]), the remaining activity at 1 µM was 86%. For the same compound, at POSH, half-maximal inhibition (IC50) was put at 1 µM.
On the same counts, the results for `COc1cc(N/C=C2/C(=O)NC(=S)N(c3ccc(F)cc3)C2=O)cc(OC)c1` [Compound 17] are 106% and 0.7 µM.
In the case of `O=C1C=CC(=O)N1c1ccccc1Cl` [Compound 18], the remaining activity at 1 µM on Hmdm2 is 101%. On POSH, this compound displayed an IC50 of 0.7 µM.
On the same counts, the results for `O=C1C=CC(=O)N1c1ccc(Cl)cc1` [Compound 19] are 100% and 0.7 µM.
With `O=C1C=CC(=O)N1c1ccc(OC(F)(F)C(F)F)c(N2C(=O)C=CC2=O)c1` [Compound 20], on Hmdm2, the remaining activity at 1 µM is 132%. At POSH, this compound came in with a 50% inhibitory concentration (IC50) of 0.9 µM.
With `COC(=O)c1ccc(N2C(=O)c3cccc(N)c3C2=O)cc1` [Compound 21], on Hmdm2 (setting [1]), the remaining activity at 1 µM was found to be 80%. In addition, the midpoint of inhibition on POSH, the IC50, lay at 0.8 µM.
For the compound `O=C1CC(NNc2ccccc2)C(=O)N1c1cccc(Cl)c1` (stereo not drawn) [Compound 22], at Hmdm2 (setting [1]), the remaining activity at 1 µM came to 102%. For the same compound, the IC50 at POSH was determined as 0.9 µM.
In the same order, the values of `O=C1C=CC(=O)N1c1cc(Cl)cc(Cl)c1` [Compound 23] are 107% and 0.2 µM.
On the same counts, the results for `O=C1\C(=C/C=C/C=C/Nc2ccccc2)SC(=S)N1c1ccccc1` [Compound 24] are 69% and 1 µM.
For `CC(C)Oc1ccc(/C=C2/SC(=S)NC2=O)cc1` [Compound 26], at Hmdm2 (setting [1]), the remaining activity at 1 µM is 98%. The IC50 against POSH is 3 µM.
On POSH, `O=C1S/C(=C/c2ccc(-c3ccc([N+](=O)[O-])cc3Cl)o2)C(=O)N1c1ccccc1` [Compound 27] gave an IC50 of 0.7 µM.
As to `O=C(O)c1ccc(-c2ccc(/C=c3\sc4nc5ccccc5n4c3=O)o2)cc1` [Compound 28], the remaining activity at 1 µM on Hmdm2 amounted to 90%. Also, the IC50 at POSH is 0.7 µM.
Take `N=C1NC(=O)/C(=C\c2ccc(-c3ccc(I)cc3)o2)S1` [Compound 29]: the remaining activity at 1 µM on Hmdm2 came to 104%. For the same compound, the IC50 against POSH is 0.7 µM.
As to `CC(=C\c1ccccc1)/C=C1/SC(=N)NC1=O` [Compound 31], the remaining activity at 1 µM at Hmdm2 (setting [1]) was 102%. The IC50 at POSH came to 0.9 µM.
Take `O=c1/c(=C/c2ccc(N3CCOCC3)cc2)sc2nc3ccccc3n12` [Compound 32]: the remaining activity at 1 µM on Hmdm2 turned out to be 141%. The same compound returned an IC50 against POSH of 0.5 µM.
`COc1cc(/C=C2\SC(=O)NC2=O)ccc1OCc1ccc(Cl)cc1Cl` [Compound 34]: at Hmdm2 (setting [1]), the remaining activity at 1 µM came to 123%. On POSH, this compound displayed an IC50 of 1 µM.
Consider `S=C(c1ccc(-c2cc(Cl)ccc2Cl)o1)N1CCCCC1` [Compound 35], for which, at Hmdm2, the remaining activity at 1 µM amounted to 101%. The midpoint of inhibition against POSH, the IC50, lay at 0.5 µM.
On to `O=C1N=C(c2ccccc2)S/C1=C/c1ccc(-c2cccc([N+](=O)[O-])c2)o1` [Compound 36], for which the remaining activity at 1 µM on Hmdm2 (setting [1]) came to 71%. This compound yielded an IC50 on POSH of 1 µM.
In the same order, the values of `N/N=C\c1ccc(-c2cccs2)s1` [Compound 37] are 107% and 1 µM.
In the case of `O=C1C(=Cc2ccc(-c3ccc(Br)cc3)o2)C(=O)c2ccccc21` [Compound 38], on Hmdm2, the remaining activity at 1 µM is 111%. At POSH, this compound yielded an IC50 of 0.4 µM.
For `O=c1nc(C(F)(F)F)cc(/C=C/c2ccc(-c3ccc(Br)cc3)o2)[nH]1` [Compound 39], the remaining activity at 1 µM on Hmdm2 (setting [1]) was found to be 108%. The half-inhibitory concentration (IC50) against POSH is 1 µM.
In the same order, the values of `O=c1oc2cc(O)ccc2cc1-c1csc(-c2ccc(Cl)cc2)n1` [Compound 40] are 159% and 1 µM.
In the same order, the values of `O=C1N=C(c2ccccc2)S/C1=C/c1ccc2ccccc2c1` [Compound 41] are 106% and 1 µM.
In the case of `CN(C)c1ccc(/C=C2\C(=O)N(c3ccc([N+](=O)[O-])cc3)N=C2N2CCOCC2)cc1` [Compound 42], the remaining activity at 1 µM at Hmdm2 came out at 111%. This compound also yielded an IC50 at POSH of 5 µM.
For `COc1ccccc1/C=C1\N=C(c2ccccc2Cl)OC1=O` [Compound 49], the remaining activity at 1 µM at Hmdm2 (setting [1]) came to 115%. This compound also displayed an IC50 on POSH of 1 µM.
In the same order, the values of `O=C1/C(=C\c2ccc(Cl)c([N+](=O)[O-])c2)Sc2ccccc21` [Compound 50] are 98% and 0.1 µM.
